Results as given in patent US20250351832A1, “PHYTOCHEMICALS AS BIOPESTICIDES AND BIOSTIMULANTS” (KAY BEE BIO ORGANICS PVT. LTD., priority 2024, published 2025).
Read-outs that look alike come from different tables or passages of the source.

Experiments:
Alternaria alternata [1] = assay: In vitro poisoned food technique against fungus (Ex. 20); assay type: cell-based; details: poisoned food technique, PDA medium, dose 1 ml/gm/lit., after seven days; for inhibition of growth at 1 mL or g/L: vs untreated control, read-out: % Inhibition of growth
Alternaria alternata [2] = assay: Alternaria leaf spot/blight on inoculated tomato plants (Ex. 28); assay type: in vivo; details: tomato plants, Alternaria alternata; after 7 days; dose 1 ml/gm/lit
tomato seedlings = assay: Response of tomato plants, greenhouse growth (Ex. 30); assay type: in vivo; details: tomato seedlings, dose 1 ml/gm/lit; for Plant Height 5th Day / Stem Girth 5th Day / CCI 5th Day: 5th day after application; for Plant Height 10th Day / Stem Girth 10th Day / CCI 10th Day: 10th day after application; for Plant Height % Increase over pre on 10th Day / Stem Girth % Increase over pre on 10th Day / CCI % Increase over pre on 10th Day / Root Length (cm) 10th Day / Root Length % Increase over control: 10th day; for Root Length % Increase over control: vs water control
chili seedlings = assay: Response of chili plants, greenhouse growth (Ex. 31); assay type: in vivo
Aphid [3] = system: Aphid
Mealy Bug [4] = system: Mealy Bug
Helicoverpa armigera [5] = system: Helicoverpa armigera
Spodoptera litura [6] = system: Spodoptera litura
Mealy Bug [7] = system: Mealy Bug; remark: listed apart in the source
Spodoptera litura [8] = details: in vivo
Thrips [9] = system: Thrips
[10] = cited from earlier work
Spodoptera litura [11] = assay: whole plant or invertebrate; details: 72 h
Thrips [12] = assay: whole plant or invertebrate; details: in Gossypium hirsutum, 48 h
Aphid [13] = assay: whole plant or invertebrate; details: 48 h
Mite [14] = details: Dose 1 ml/gm/lit.
Thrips [15] = details: Thrips on cotton leaves; dose 1 ml/gm/lit.; 10 insects/treatment; 48 hrs after application
Aphid [16] = details: Aphids on cotton plants, green house; dose 1 ml/gm/lit.; 10 insects/plant, 10 plants/treatment; 48 hrs
Mite [17] = details: mite on okra plants, green house, dose 1 ml/gm/lit. spray
Helicoverpa armigera [18] = details: Helicoverpa armigera 3rd instar on chickpea plants, dose 1 ml/gm/lit. spray
[19] = chili seedlings, dose 1 ml/gm/lit, 10th day
[20] = Table 13, descriptive, no test described
[21] = read-out: % Corrected Mortality at 72 Hrs.
[22] = read-out: % Mortality at 72 Hrs.
[23] = read-out: % Corrected Mortality at 48 Hrs.
[24] = read-out: % Mortality at 48 Hrs.
[25] = chili seedlings, dose 1 ml/gm/lit, 5th day after application
[26] = chili seedlings, dose 1 ml/gm/lit, 10th day after application
[27] = mealy bug on cotton plants, green house, dose 1 ml/gm/lit. spray, 48 hrs after application
[28] = thrips on cotton plants, greenhouse, dose 1 ml/gm/lit. spray, 48 hrs after application

## CC(C)c1ccc(C=O)cc1 [Cuminaldehyde]
Alternaria alternata [1]
  Mean colony Diameter (mm): 51.50 mm
  inhibition of growth at 1 mL or g/L: 41.5%
Alternaria alternata [2]
  % Disease reduction over Control: 52.89%
Tomato seedlings
  Plant Height 5th Day: 6.62 cm
  Stem Girth 5th Day: 1.77 mm
  Plant Height 10th Day: 7.33 cm
  Stem Girth 10th Day: 2.08 mm
  Plant Height % Increase over pre on 10th Day: 31.36%
  Stem Girth % Increase over pre on 10th Day: 64.12%
  CCI 5th Day: 13.64
  CCI % Increase over pre on 10th Day: 16.83%
  Root Length (cm) 10th Day: 3.81 cm
  CCI 10th Day: 14.65
  Root Length % Increase over control: 14.59%
Chili seedlings
  CCI Pre: 10.29
  Plant Height (cm) Pre: 4.27 cm
Chili seedlings; 120 h
  CCI 5th Day: 12.10
  Plant Height (cm) 5th Day: 5.77 cm
Chili seedlings; 240 h
  CCI 10th Day: 13.9
  Plant Height (cm) 10th Day: 6.40 cm
  Root Lenght % Increase over control: 13.94%
Chili seedlings; [19]
  CCI % Increase over pre on 10th Day: 35.08%
  Plant Height % Increase over pre on 10th Day: 50.00%
  Root Lenght (cm) 10th Day: 3.12 cm
  Stem Girth % Increase over pre on 10th Day: 40.41%
Aphid [3]; in vivo
  % Corrected Mortality at 48 Hrs.: 45.71%
  % Mortality at 48 Hrs.: 52.50%
Mealy Bug [4]; in vivo
  % Corrected Mortality at 48 Hrs.: 50.00%
Helicoverpa armigera [5]; in vivo
  Total No. of dead insect at 72 Hrs.: 3.75
Spodoptera litura [6]; in vivo
  Total No. of dead insect at 72 Hrs.: 5.25
Mealy Bug [7]; in vivo
  % Corrected Mortality at 48 Hrs.: 50.00%
Spodoptera litura [8]
  % Corrected Mortality at 72 Hrs.: 52.63%
  % Mortality at 72 Hrs.: 55.00%
Thrips [9]; in vivo
  % Corrected Mortality at 48 Hrs.: 33.33%
  % Mortality at 48 Hrs.: 40.00%
[10]; [20]
  Antifungal Activity - Mode of action: Mycelial growth inhibition
  Antioxidant Activity - Mode of action: Increase in reactive oxygen
  Bactericidal Activity - Mode of action: Great antimicrobial effects
  Insecticidal Activities - Mode of action: Acute Toxicity Effects
  Nematicidal Activity - Mode of action: Efficient hatching inhibitor
[10]; Table 13, effect on plants, descriptive
  Phytotonic Effect: Boost plant
Spodoptera litura [11]; [21]
  mortality at 1 mL or g/L: 50%
Spodoptera litura [11]; [22]
  mortality at 1 mL or g/L: 52.5%
Thrips [12]; [23]
  mortality at 1 mL or g/L: 34.3%
Thrips [12]; [24]
  mortality at 1 mL or g/L: 42.5%
Aphid [13]; [23]
  mortality at 1 mL or g/L: 47.1%
Aphid [13]; [24]
  mortality at 1 mL or g/L: 55%

## CC1CCC(C(C)C)C(O)C1 (centres unmarked) [Menthol]
Alternaria alternata [1]
  Mean colony Diameter (mm): 52.00 mm
  inhibition of growth at 1 mL or g/L: 40.9%
Alternaria alternata [2]
  % Disease reduction over Control: 56.20%
Tomato seedlings
  Plant Height 5th Day: 6.78 cm
  Stem Girth 5th Day: 1.48 mm
  Plant Height 10th Day: 7.18 cm
  Stem Girth 10th Day: 2.19 mm
  Plant Height % Increase over pre on 10th Day: 27.30%
  Stem Girth % Increase over pre on 10th Day: 54.01%
  CCI 5th Day: 13.48
  CCI % Increase over pre on 10th Day: 27.44%
  Root Length (cm) 10th Day: 3.93 cm
  CCI 10th Day: 14.35
  Root Length % Increase over control: 18.18%
Chili seedlings; [25]
  CCI 5th Day: 10.24
  Plant Height (cm) 5th Day: 6.48 cm
Chili seedlings; [19]
  CCI % Increase over pre on 10th Day: 44.78%
  Plant Height % Increase over pre on 10th Day: 45.21%
  Root Lenght (cm) 10th Day: 3.02 cm
  Stem Girth % Increase over pre on 10th Day: 42.37%
Chili seedlings; [26]
  CCI 10th Day: 13.87
  Plant Height (cm) 10th Day: 6.52 cm
Chili seedlings; chili seedlings, dose 1 ml/gm/lit, 10th day, vs water control
  Root Lenght % Increase over control: 10.37%
Aphid [3]; Dose 1 ml/gm/lit., 10 insects/treatment, 4 replications, cotton leaves
  Total No. of dead insect at 48 Hrs.: 7.00
Aphid [3]; Dose 1 ml/gm/lit., 48 hrs
  % Corrected Mortality at 48 Hrs.: 65.71%
  % Mortality at 48 Hrs.: 70.00%
Mite [14]; 10 insects/treatment, 4 replications, okra leaves
  Total No. of dead insect at 48 Hrs.: 4.50
Mite [14]; 48 hrs
  % Corrected Mortality at 48 Hrs.: 40.54%
  % Mortality at 48 Hrs.: 45.00%
Mealy Bug [4]; Mealy Bug on cotton leaves, dose 1 ml/gm/lit., 10 insects/treatment, 4 replications, 48 Hrs.
  Total No. of dead insect at 48 Hrs.: 6.50
Mealy Bug [4]; Mealy Bug on cotton leaves, dose 1 ml/gm/lit., 48 Hrs.
  % Mortality at 48 Hrs.: 65.00%
Mealy Bug [4]; Mealy Bug on cotton leaves, dose 1 ml/gm/lit., 48 Hrs., corrected for water control
  % Corrected Mortality at 48 Hrs.: 63.16%
Helicoverpa armigera [5]; Helicoverpa armigera on okra fruits, dose 1 ml/gm/lit., 10 insects/treatment, 4 replications, 72 Hrs.
  Total No. of dead insect at 72 Hrs.: 6.00
Helicoverpa armigera [5]; Helicoverpa armigera on okra fruits, dose 1 ml/gm/lit., 72 Hrs.
  % Mortality at 72 Hrs.: 60.00%
Helicoverpa armigera [5]; Helicoverpa armigera on okra fruits, dose 1 ml/gm/lit., 72 Hrs., corrected for water control
  % Corrected Mortality at 72 Hrs.: 60.00%
Spodoptera litura [6]; Spodoptera litura on castor leaves, dose 1 ml/gm/lit., 10 insects/treatment, 72 hrs after application
  Total No. of dead insect at 72 Hrs.: 2.75
Thrips [15]
  Total No. of dead insect at 48 Hrs.: 7.50
Aphid [16]
  Total No. of dead insect at 48 Hrs.: 75.00
Mite [17]; 48 hrs after application
  % Mortality at 48 Hrs.: 42.50%
  Total No. of dead insect at 48 Hrs.: 42.50
Mite [17]; 48 hrs, corrected for water control
  % Corrected Mortality at 48 Hrs.: 39.47%
Mealy Bug [7]; [27]
  % Mortality at 48 Hrs.: 67.50%
  Total No. of dead insect at 48 Hrs.: 67.50
Mealy Bug [7]; mealy bug on cotton plants, green house, dose 1 ml/gm/lit. spray, 48 hrs, corrected for water control
  % Corrected Mortality at 48 Hrs.: 63.89%
Helicoverpa armigera [18]; 72 hrs after application
  % Mortality at 72 Hrs.: 55.00%
Helicoverpa armigera [18]; 72 hrs, corrected for water control
  % Corrected Mortality at 72 Hrs.: 55.00%
Thrips [9]; [28]
  % Mortality at 48 Hrs.: 72.50%
  Total No. of dead insect at 48 Hrs.: 72.50
Thrips [9]; thrips on cotton plants, greenhouse, dose 1 ml/gm/lit. spray, 48 hrs, corrected for water control
  % Corrected Mortality at 48 Hrs.: 69.44%
[10]; [20]
  Acaricidal Activity - Mode of action: Causes mortality & reduction
  Antifungal Activity - Mode of action: Inhibits fungal growth
  Antioxidant Activity - Mode of action: Possesses antioxidant
  Bactericidal Activity - Mode of action: Menthol showed
  Insecticidal Activities - Mode of action: Lower larval weight, reduced
Spodoptera litura [11]; [21]
  mortality at 1 mL or g/L: 23.7%
Spodoptera litura [11]; [22]
  mortality at 1 mL or g/L: 27.5%
Thrips [12]; [23]
  mortality at 1 mL or g/L: 71.4%
Thrips [12]; [24]
  mortality at 1 mL or g/L: 75%
Aphid [13]; [23]
  mortality at 1 mL or g/L: 70.6%
Aphid [13]; [24]
  mortality at 1 mL or g/L: 75%
